Laboratory results: US20250041451A1, “GENE THERAPY FOR HEARING LOSS” (Perceive Biotherapeutics, Inc., priority 2021, published 2025)
Where two headings read alike, the source gives them in different places.

Tests used:
[1] = tested on: cochlear hair cells (mouse cochlear explants); type: cell-based; settings: for number of viable hair cells: untreated explants 17-52
Description: In some embodiments, an in vitro method is employed. An illustrative assay uses an aminoglycoside-induced model (using gentamycin) of hair cell death using cochlear explants. In brief, the cochleae are collected from test animal, e.g., mice. All cochleae are combined in the same dissection maintenance bath and plated as an individual sample. The following morning, high magnification digital images of cochlea are taken and cochlear explant is assigned to groups. A desired number of explants will be used for further gentamicin treatment. Test article and positive control article are dosed ˜6 hours either prior, together with, or following to gentamicin for a duration of up to 3 days. If the culture medium is replaced (e.g. when gentamicin is added/removed), the test or positive control article will be re-administered. The cochlea are cultured and observed for health and survival. At the end of the culture cochlear explants are bathed with buffer and processed for cochleogram. Following the fixation, all the cochlear explants undergo immunofluorescent staining with anti-Myosin VIIa and Phalloidin in order to specifically label the hair cells. The explants are then mounted on microscope slides, and imaged utilizing a confocal microscope using the same laser power settings for all samples. Cochlear fragment images are then divided into 20% fragments from the apex to the base. MyosinVIIa light intensity is quantified in each fragment and compared among groups. Image analysis is performed using an imaging platform, e.g., a Fiji image analysis platform. Explants are scanned using confocal microscope with filters for 488 nm and 594 nm wave lengths. Scanning is performed using the same laser power through the entire imaging for proper light intensity calculation. For analysis, cochlea can be divided in fragment of X %. Intensity of light coming from MyoVii is quantified in each fragment and compared among groups.
Mouse cochlear explants were treated with “ORI-069” a small molecule inhibitor of DLK and LZK. ORI-069 is 2-Amino-N-[(2S)-butan-2-yl]-7-(1-{2-methyl-1-[6-(trifluoromethyl)pyridin-3-yl]propyl}-1H-pyrazol-4-yl)[1,2,4]triazolo[1,5-ca]pyridine-5-carboxamide (stereoisomers 2, eutomer).
Animals were euthanized in accordance with American Veterinary Medical Association guidelines and cochleae were collected. All cochleae from each group were combined in the same dissection maintenance bath and plated as a group.
At the end of the culture period, the cochlear explants were bathed with 10% neutral buffered formalin (NBF) and processed for hair cell counting. Digital images of the cultures were collected before fixation.
Following fixation, all cochlear explants underwent immunofluorescent staining with anti-Myosin VIIa to specifically label the hair cells. The explants were mounted on microscope slides, then imaged utilizing a confocal microscope: 20× for full scan and with 63× oil, zoom 2.25, 4 zones along the length of the cochlea: one from 50-200 μm for each extremity, one in the 33% tile and one in the 66% tile. Detailed scanning was performed using 488 nm and 594 nm filters.
A blind counting of all hair cells (OHC & IHC undiscriminated) was performed on 4 to 6 zones of each explant (fragments 1, 2, 3, 4, 5 and 6) through the entire z stack generated. Counting and fragment length measure was performed by 3 different individuals. Only cells without nucleus aberration, with good staining, integrity, and well delimited cell outline were considered for counting. Cell density was determined by reporting each counting to the length of the fragment. Image analysis was performed using Fiji image analysis platform, a distribution of ImageJ.

HC survival and hearing = settings: literature (Ylikoski 2002; Pirvola 2000); cited from earlier work

CC[C@H](C)NC(=O)c1cc(-c2cnn(C(c3ccc(C(F)(F)F)nc3)C(C)C)c2)cc2nc(N)nn12 (stereo partly drawn) [ORI-069, 2-Amino-N-[(2S)-butan-2-yl]-7-(1-{2-methyl-1-[6-(trifluoromethyl)pyridin-3-yl]propyl}-1H-pyrazol-4-yl)[1,2,4]triazolo[1,5-ca]pyridine-5-carboxamide]
number of hair cells compared to gentamycin treated explants ([1]; 5 μM test article + gentamycin 50 μM): higher compared to gentamycin treated explants
number of viable hair cells ([1]; gentamycin 50 μM (16 h) treated explants co-administered with 0.5 μM test article, 3 days): 0-20 hair cells/fragment
number of viable hair cells ([1]; gentamycin 50 μM (16 h) treated explants co-administered with 5 μM test article, 3 days): 0-32 hair cells/fragment
protection of explant cultures (3-D Z-stack reconstructions, FIG. 2) ([1]; gentamycin 50 μM treated explants, concentration not given): protected explant cultures

CCSCc1ccc2c(c1)c1c3c(c4c5cc(CSCC)ccc5n5c4c1n2[C@H]1C[C@](O)(C(=O)OC)[C@]5(C)O1)CNC3=O [CEP-1347]
level of hair cells compared to gentamycin treated explants ([1]; 0.5 μM test article + gentamycin 50 μM): same low level of hair cells as the gentamycin treated explants
protective effect ([1]; positive control, 0.5 μM + gentamycin 50 μM): did not show a protective effect
HC survival and hearing in multiple animal models (HC survival and hearing): increase HC survival and preserve hearing

gentamycin
number of viable hair cells ([1]; gentamycin 50 μM alone, single 16 h): 0-14 hair cells/fragment
